Measurements as given in PubChem BioAssay (NCI).
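Interpolation was linear, between the two tested concentrations surrounding the appropriate level; five concentrations were tested over 48 hours in 96-well plates. GI50 marks 50% less growth. The concentration for full growth arrest is given as TGI.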

How the values were obtained:
Experiment in all cases: inhibition of tumour cell growth, NCI panel, 48 h
[1] = tested on: MOLT-4 leukemia
[2] = tested on: SW-620 colon
[3] = tested on: SF-295 CNS
[4] = tested on: 786-0 renal
[5] = tested on: KM12 colon
[6] = tested on: A549 NSCLC
[7] = tested on: OVCAR-8 ovarian
[8] = tested on: TK-10 renal
[9] = tested on: OVCAR-5 ovarian
[10] = tested on: PC-3 prostate
[11] = tested on: MCF7 breast
[12] = tested on: NCI-H460 lung
[13] = tested on: RXF 393 renal
[14] = tested on: U251 CNS
[15] = tested on: IGROV1 ovarian
[16] = tested on: RPMI-8226 leukemia
[17] = tested on: HCT-116 colon
[18] = tested on: HCC-2998 colon
[19] = tested on: HL-60(TB) leukemia
[20] = tested on: EKVX NSCLC
[21] = tested on: HOP-92 NSCLC
[22] = tested on: SK-MEL-28 melanoma
[23] = tested on: T-47D breast
[24] = tested on: DU-145 prostate
[25] = tested on: HT29 colon
[26] = tested on: NCI-H23 lung
[27] = tested on: HCT-15 colon
[28] = tested on: SF-268 CNS
[29] = tested on: OVCAR-4 ovarian
[30] = tested on: UO-31 renal
[31] = tested on: CCRF-CEM leukemia
[32] = tested on: BT-549 breast
[33] = tested on: HOP-62 NSCLC
[34] = tested on: UACC-62 melanoma
[35] = tested on: CAKI-1 renal
[36] = tested on: UACC-257 melanoma
[37] = tested on: SK-MEL-2 melanoma
[38] = tested on: NCI-H226 lung
[39] = tested on: SF-539 CNS
[40] = tested on: NCI/ADR-RES ovarian
[41] = tested on: M14 melanoma
[42] = tested on: NCI-H522 lung
[43] = tested on: K-562 leukemia
[44] = tested on: LOX IMVI melanoma
[45] = tested on: MALME-3M melanoma
[46] = tested on: COLO 205 colon
[47] = tested on: SK-MEL-5 melanoma
[48] = tested on: SR leukemia
[49] = tested on: SNB-19 CNS
[50] = tested on: A498 renal
[51] = tested on: SK-OV-3 ovarian
[52] = tested on: SN12C renal
[53] = tested on: MDA-MB-231 breast
[54] = tested on: SNB-75 CNS
[55] = tested on: HS 578T breast
[56] = tested on: OVCAR-3 ovarian
[57] = tested on: MDA-MB-435
[58] = tested on: ACHN renal

CN[C@@H](C)C(=O)N[C@H]1CCS[C@H]2CC(C)(C)[C@@H](C(=O)N[C@H]3c4ccccc4C[C@H]3OCC#CC#CCO[C@@H]3Cc4ccccc4[C@@H]3NC(=O)[C@H]3N4C(=O)[C@@H](NC(=O)[C@H](C)NC)CCS[C@H]4CC3(C)C)N2C1=O
GI50 [1]: 9.86 µM | TGI [1]: 22.4 µM | GI50 [2]: > 50 µM | TGI [2]: > 50 µM | GI50 [3]: > 50 µM | TGI [3]: > 50 µM | GI50 [4]: > 50 µM | TGI [4]: > 50 µM | GI50 [5]: 30.5 µM | TGI [5]: > 50 µM | GI50 [6]: > 50 µM | TGI [6]: > 50 µM | GI50 [7]: 35.9 µM | TGI [7]: > 50 µM | GI50 [8]: > 50 µM | TGI [8]: > 50 µM | GI50 [9]: > 50 µM | TGI [9]: > 50 µM | GI50 [10]: > 28.4 µM | TGI [10]: > 50 µM | GI50 [11]: 5.87 µM | TGI [11]: 17.8 µM | GI50 [12]: 24.6 µM | TGI [12]: > 50 µM | GI50 [13]: 0.423 µM | TGI [13]: 5.24 µM | GI50 [14]: > 50 µM | TGI [14]: > 50 µM | GI50 [15]: 32.1 µM | TGI [15]: > 50 µM | GI50 [16]: 2.25 µM | TGI [16]: > 36 µM | GI50 [17]: > 28.8 µM | TGI [17]: > 50 µM | GI50 [18]: 19.5 µM | TGI [18]: > 50 µM | GI50 [19]: 0.0759 µM | TGI [19]: 2.33 µM | GI50 [20]: > 38.9 µM | TGI [20]: > 50 µM | GI50 [21]: 2.99 µM | TGI [21]: 14.3 µM | GI50 [22]: > 46.6 µM | TGI [22]: > 50 µM | GI50 [23]: 29.9 µM | TGI [23]: > 50 µM | GI50 [24]: 20.6 µM | TGI [24]: > 50 µM | GI50 [25]: 20.2 µM | TGI [25]: > 50 µM | GI50 [26]: > 32 µM | TGI [26]: > 50 µM | GI50 [27]: > 50 µM | TGI [27]: > 50 µM | GI50 [28]: 41.9 µM | TGI [28]: > 50 µM | GI50 [29]: 0.0146 µM | TGI [29]: 0.203 µM | GI50 [30]: > 50 µM | TGI [30]: > 50 µM | GI50 [31]: 0.0966 µM | TGI [31]: 12.3 µM | GI50 [32]: 0.00762 µM | TGI [32]: 6.38 µM | GI50 [33]: 3.72 µM | TGI [33]: > 50 µM | GI50 [34]: > 50 µM | TGI [34]: > 50 µM | GI50 [35]: > 50 µM | TGI [35]: > 50 µM | GI50 [36]: > 50 µM | TGI [36]: > 50 µM | GI50 [37]: 0.174 µM | TGI [37]: 13.9 µM | GI50 [38]: > 50 µM | TGI [38]: > 50 µM | GI50 [39]: 0.0118 µM | TGI [39]: 2.4 µM | GI50 [40]: > 50 µM | TGI [40]: > 50 µM | GI50 [41]: > 50 µM | TGI [41]: > 50 µM | GI50 [42]: 7.38 µM | TGI [42]: 32 µM | GI50 [43]: 12.9 µM | TGI [43]: > 33.4 µM | GI50 [44]: 13.8 µM | TGI [44]: > 50 µM | GI50 [45]: 0.00951 µM | TGI [45]: 0.115 µM | GI50 [46]: 25.2 µM | TGI [46]: > 50 µM | GI50 [47]: 4.75 µM | TGI [47]: > 16.8 µM | GI50 [48]: 0.0264 µM | TGI [48]: > 22.1 µM | GI50 [49]: > 50 µM | TGI [49]: > 50 µM | GI50 [50]: > 50 µM | TGI [50]: > 50 µM | GI50 [51]: < 0.005 µM | TGI [51]: < 0.005 µM | GI50 [52]: > 46.9 µM | TGI [52]: > 50 µM | GI50 [53]: < 0.005 µM | TGI [53]: 0.0239 µM | GI50 [54]: 1.99 µM | TGI [54]: 21.4 µM | GI50 [55]: 15.5 µM | TGI [55]: > 50 µM | GI50 [56]: 12 µM | TGI [56]: > 43.9 µM | GI50 [57]: > 23 µM | TGI [57]: > 50 µM | GI50 [58]: > 50 µM | TGI [58]: > 50 µM
